In patent US20120316137A1, “Methods and Compositions for Treating Cancer” (priority 2009, published 2012):
Where two headings read alike, the source gives them in different places.

Experiments:
RS4;11 cells (wt) = assay: Cell viability assay (72 h); conditions: Homo sapiens, RS4-11, 72 h, read-out: Cell viability IC50 (nM)
Procedure: (§1) Exponentially growing cell lines were plated into 96-well plates and incubated overnight at 37° C. […] Fluorescence was measured using a Wallac Victor microplate reader (PerkinElmer, Waltham, Mass.). […] Data are shown as mean (1 SD) from 3 separate experiments, each tested in triplicate.

[1] = system: Kasumi-1 cells (c-KIT N822K); assay: Cell viability assay (72 h); format: cell-based; conditions: Homo sapiens; Kasumi-1; 72 hours; read-out: Cell viability IC50
Procedure: as §1

MV4-11 cells (FLT3-ITD) = assay: Cell viability assay (72 h); conditions: Homo sapiens, MV4-11, 72 h, read-out: Cell viability IC50 (nM)
Procedure: as §1

[2] = system: KG1 cells (FGFR1OP2-FGFR1); assay: Cell viability assay (72 h); conditions: Homo sapiens, KG-1, 72 h, read-out: Cell viability IC50 (nM)
Procedure: as §1

[3] = system: EOL1 cells (FIP1L1-PDGFRα); assay: Cell viability assay (72 h); conditions: Homo sapiens, EOL1, 72 h, read-out: Cell viability IC50 (nM)
Procedure: as §1

[4] = system: KG1 cells (FGFR1-FGFR1OP2 fusion); assay: Cell growth assay (72 h); format: cell-based; conditions: Homo sapiens
Source text: (§2) Data are shown as mean (±SD) from 3 separate experiments tested in triplicate.

[5] = system: SNU16 gastric cancer cells with amplified FGFR2; assay: cells; conditions: Homo sapiens, SNU-16, read-out: Cell growth GI50 (nM)
Source text: as §2

[6] = system: MDA-MB-453 breast cancer cells, mutant FGFR4 (Y367C); assay: cells; conditions: Homo sapiens, MDA-MB-453, read-out: Cell growth GI50 (nM)
Source text: as §2

[7] = system: AN3CA endometrial cancer cells with mutant FGFR2 (N549K); assay: cells; conditions: Homo sapiens, AN3-CA, read-out: Cell growth GI50 (nM)
Source text: as §2

[8] = system: MGH-U3 bladder cancer cells, mutant FGFR3b (Y375C); assay: Cell growth assay (72 h); format: cell-based
Source text: as §2

[9] = system: OPM2 multiple myeloma cells, mutant FGFR3 (K650E); assay: cells; conditions: Homo sapiens, OPM-2, read-out: Cell growth GI50 (nM)
Source text: as §2

[10] = system: FGFR2 signaling in SNU16 gastric cells (Amplified); assay: cells; conditions: Homo sapiens, SNU-16, read-out: Signaling IC50 (nM)
Source text: Cells were lysed in either SDS buffer or Phospho-Safe (Novagen, Gibbstown, N.J.) and protein lysates were immunoprecipitated overnight and/or immunoblotted with the indicated antibodies. Protein expression was quantified using Quantity One software (BioRad, Hercules, Calif.).

[11] = system: mononuclear cells from a CML accelerated phase patient harboring BCR-ABL^T315I; assay: Hematopoietic colony forming assay; conditions: methylcellulose, 14-18 days
FGFR4 = FGFR4 (Homo sapiens, UniProt P22455); assay: Kinase assay (RBC)
[12] = system: AN3CA endometrial cancer cell line; assay: Combination cell growth assay (Chou and Talalay); format: cell-based; conditions: AN3CA cells; cell growth; read-out: 1×EC50 concentration
[13] = system: FGFR2-mutant AN3CA tumor xenograft; assay: AN3CA xenograft, compound 1 and ridaforolimus (Example 9); format: in vivo, nude mice
Procedure: AN3CA cells were implanted into the right flank of nude mice. […] Mean tumor volumes (±SE; tumor volume=L×W^2×0.5) were calculated for each treatment group.

[14] = system: MFE-296 endometrial cancer cell line; assay: Combination cell growth assay (Chou and Talalay); format: cell-based; conditions: MFE-296 cells; cell growth; read-out: 1×EC50 concentration
FGFR2 = FGFR2 (Homo sapiens, UniProt P21802); assay: Kinase assay (RBC); conditions: IC50 (nM), 10 μM ATP
[15] = KG-1, read-out: Cell growth GI50 (nM)
[16] = MGH-U3, read-out: Cell growth GI50

Chain of FGFR2 (P21802 481-770 limits assumed): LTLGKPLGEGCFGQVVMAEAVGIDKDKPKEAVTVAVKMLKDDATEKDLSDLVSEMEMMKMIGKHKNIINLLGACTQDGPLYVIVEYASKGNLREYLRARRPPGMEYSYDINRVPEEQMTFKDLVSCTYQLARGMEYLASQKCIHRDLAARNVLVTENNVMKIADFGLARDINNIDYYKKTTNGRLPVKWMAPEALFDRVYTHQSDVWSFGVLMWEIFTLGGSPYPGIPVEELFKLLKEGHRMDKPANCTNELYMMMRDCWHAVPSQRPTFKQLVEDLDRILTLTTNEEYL
Chain of FGFR4 (P22455 467-755 limits assumed): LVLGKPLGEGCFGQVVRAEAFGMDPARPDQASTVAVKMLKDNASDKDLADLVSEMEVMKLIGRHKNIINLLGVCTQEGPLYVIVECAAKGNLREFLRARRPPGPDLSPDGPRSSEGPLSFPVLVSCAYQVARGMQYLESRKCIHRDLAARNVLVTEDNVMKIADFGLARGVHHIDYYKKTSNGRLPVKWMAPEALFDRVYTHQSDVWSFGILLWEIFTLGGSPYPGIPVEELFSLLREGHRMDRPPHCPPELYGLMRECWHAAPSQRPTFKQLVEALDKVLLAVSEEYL

SMILES | GI50 [5] [nM] | GI50 [6] [nM] | GI50 [7] [nM] | GI50 [9] [nM] | IC50 [10] [nM] | GI50 [8, 16] [nM] | further results
CCN(CC)CCNC(=O)c1c(C)[nH]c(/C=C2\C(=O)Nc3ccc(F)cc32)c1C [Sunitinib, sunitinib] |  |  |  |  |  |  | IC50 (RS4;11 cells (wt)): > 100 nM; IC50 [1]: 56 nM; IC50 (MV4-11 cells (FLT3-ITD)): 12 nM; IC50 [2]: > 100 nM; IC50 [3]: 3 nM
COC(=O)c1ccc2c(c1)NC(=O)/C2=C(\Nc1ccc(N(C)C(=O)CN2CCN(C)CC2)cc1)c1ccccc1 [BIBF 1120] | 496 | 1540 | 684 | 297 | 496 |  | GI50 [4, 15]: 221 nM; GI50 ([8]; read-out: Cell growth GI50 (nM), MGH-U3): > 1000 nM
Cc1cn(-c2cc(NC(=O)c3ccc(C)c(Nc4nccc(-c5cccnc5)n4)c3)cc(C(F)(F)F)c2)cn1 [nilotinib] |  |  |  |  |  |  | effect on colony formation [11]: neither nilotinib nor dasatinib showed any effect
CNC(=O)c1cc(Oc2ccc(NC(=O)Nc3ccc(Cl)c(C(F)(F)F)c3)cc2)ccn1 [Sorafenib, sorafenib] |  |  |  |  |  |  | IC50 (RS4;11 cells (wt)): > 100 nM; IC50 [1]: 59 nM; IC50 (MV4-11 cells (FLT3-ITD)): 4 nM; IC50 [2]: > 100 nM; IC50 [3]: 0.5 nM
CCN(CC)CCCCNc1ncc2cc(-c3cc(OC)cc(OC)c3)c(NC(=O)NC(C)(C)C)nc2n1 [PD 173074] | 20 | 1660 | 187 | 83 |  | 850 | GI50 [4, 15]: 10 nM; IC50 (FGFR4): 367 nM
CO[C@H]1C[C@@H]2CC[C@@H](C)[C@@](O)(O2)C(=O)C(=O)N2CCCC[C@H]2C(=O)O[C@H]([C@H](C)C[C@@H]2CC[C@@H](OP(C)(C)=O)[C@H](OC)C2)CC(=O)[C@H](C)/C=C(\C)[C@@H](O)[C@@H](OC)C(=O)[C@H](C)C[C@H](C)/C=C/C=C/C=C/1C [Ridaforolimus, reference compound] |  |  |  |  |  |  | EC50 [12]: 0.4 nM; TGI (%) ([13]; Ridaforolimus 0.3 mg/kg alone): 48%; TGI (%) ([13]; Ridaforolimus 1 mg/kg alone): 70%; EC50 [14]: 1 nM
COc1cc2c(Oc3ccc4[nH]c(C)cc4c3F)ncnc2cc1OCCCN1CCCC1 [AZD 2171] |  | > 1000 | 34 | 296 | 148 | 296 | GI50 ([4]; KG-1, KG1, read-out: Cell growth GI50): 23 nM
Cc1cc2c(F)c(Oc3ncnn4cc(OC[C@@H](C)O)c(C)c34)ccc2[nH]1 [BMS-540215] | > 1000 | > 10000 | > 1000 | 6200 | > 1000 | > 1000 | IC50 (FGFR2): 202 nM
